Data on 15 compounds can be found in ChEMBL document CHEMBL1201862, “PubChem BioAssay data set” (2004).

For orientation: AC50 means the concentration giving half of the maximal activity seen. A word on the IC50: it is the midpoint of a concentration-inhibition curve. As a reminder, the EC50 is the concentration needed to bring the measured effect to its halfway point. The CC50 is the concentration giving 50% cytotoxicity.

In assay [1] the target is T1, Microphthalmia-associated transcription factor (Homo sapiens, UniProt O75030).
T1 sequence (O75030 whole entry): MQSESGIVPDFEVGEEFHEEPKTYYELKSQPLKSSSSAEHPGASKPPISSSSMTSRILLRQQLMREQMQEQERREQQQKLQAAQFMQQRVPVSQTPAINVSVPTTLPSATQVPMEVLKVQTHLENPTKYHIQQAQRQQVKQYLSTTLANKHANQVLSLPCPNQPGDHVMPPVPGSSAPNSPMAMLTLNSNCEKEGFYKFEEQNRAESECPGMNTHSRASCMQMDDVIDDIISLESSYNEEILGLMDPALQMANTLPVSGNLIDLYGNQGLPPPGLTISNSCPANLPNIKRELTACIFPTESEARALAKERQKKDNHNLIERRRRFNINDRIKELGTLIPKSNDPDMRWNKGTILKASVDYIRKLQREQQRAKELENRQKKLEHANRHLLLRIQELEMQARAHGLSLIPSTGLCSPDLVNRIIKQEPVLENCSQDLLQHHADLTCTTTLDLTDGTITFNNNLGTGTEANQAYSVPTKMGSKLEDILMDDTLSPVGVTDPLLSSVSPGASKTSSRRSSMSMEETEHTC
Nature of the assay: TRPM1 promoter luciferase signal decrease, dose response, MITF inhibitor project, cell-based, SK-MEL-5, cherry-picked, set 3 (AID 493073).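 Further: SK-MEL-5 melanoma cells with luciferase driven by the MITF target TRPM1 promoter.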 It counts as functional.

Assay [2] in a line: Shn3 3'UTR reporter inhibitors, dose response, cell-based, Clone20 osteoblasts, firefly luciferase, cherry-picked (AID 624132).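 Further: firefly luciferase luminescence from reporter carrying the Shn3 3'UTR in osteoblasts.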 The format is functional.
Assay [3] can be described thus: control 3'UTR Renilla luciferase suppression, dose response, counter-screen for Shn3 inhibitor project, cell-based, Clone20-Shn3RL, cherry-picked (AID 624133). The format is functional.
Assay [4] can be described thus: HepG2 cell cytotoxicity, dose response, cytotoxicity control for Shn3 inhibitor project, CellTiter-Glo, cherry-picked (AID 624134). It counts as functional, cell-based.
In assay [5] the target is T2, Rac GTPase-activating protein 1 (Homo sapiens, UniProt Q9H0H5).
T2 sequence (Q9H0H5 whole entry): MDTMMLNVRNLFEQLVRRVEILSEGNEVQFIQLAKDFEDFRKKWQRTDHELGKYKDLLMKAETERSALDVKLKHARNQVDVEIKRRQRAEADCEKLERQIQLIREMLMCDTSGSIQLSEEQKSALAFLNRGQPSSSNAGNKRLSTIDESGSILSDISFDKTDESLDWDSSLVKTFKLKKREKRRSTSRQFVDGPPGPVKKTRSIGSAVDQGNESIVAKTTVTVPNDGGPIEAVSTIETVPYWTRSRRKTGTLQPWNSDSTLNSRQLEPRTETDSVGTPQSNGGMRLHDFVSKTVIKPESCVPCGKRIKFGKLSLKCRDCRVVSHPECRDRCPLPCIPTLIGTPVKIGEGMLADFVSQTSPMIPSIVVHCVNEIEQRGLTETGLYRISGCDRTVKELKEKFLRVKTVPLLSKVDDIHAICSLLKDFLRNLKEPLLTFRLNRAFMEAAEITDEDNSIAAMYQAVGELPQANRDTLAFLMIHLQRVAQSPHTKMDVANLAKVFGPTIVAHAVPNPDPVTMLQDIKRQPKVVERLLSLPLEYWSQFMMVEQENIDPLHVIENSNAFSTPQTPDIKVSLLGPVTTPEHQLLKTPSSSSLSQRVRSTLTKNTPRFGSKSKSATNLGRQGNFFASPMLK
As to the kind of experiment: MgcRacGAP GTPase-activating activity inhibitors, confirmation, biochemical, ADP Hunter fluorescence, primary and confirmatory (AID 624330). The format is functional.

Assay [6] can be described thus: Luminescence Cell-Based Dose Response HTS to Identify Activators of Luciferase Translation or Activity in H4 […] Cells. [Related pubchem assays: 1829 (Project Summary), 1814 (Primary HTS)]. It counts as functional.
Assay [7] in a line: Luminescence Cell-Based Dose Confirmation HTS to Identify Activators of 5'UTR Stem-Loop Driven Alpha-Synuclein mRNA Translation in H4 Neuroglioblastoma Cells. [Related pubchem assays: 1829 (Project Summary), 1814 (Primary HTS)]. It counts as functional.
The test system of a further assay is H4. As to the kind of experiment: Luminescence Cell-Based Dose Response HTS to Identify Activators of 5'UTR Stem-Loop Driven Prion Protein mRNA Translation in H4 Neuroglioblastoma Cells. [Related pubchem assays: 1829 (Project Summary), 1814 (Primary HTS)]. It counts as functional. The following applies: Homo sapiens.
The target of assay [8] is T3, Ubiquitin-conjugating enzyme E2 N (Homo sapiens, UniProt P61088).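 Further: Dose-response confirmation in a TR-FRET assay detecting UBC13-driven polyubiquitin chain formation, inhibition measured.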
T3 sequence (P61088 whole entry): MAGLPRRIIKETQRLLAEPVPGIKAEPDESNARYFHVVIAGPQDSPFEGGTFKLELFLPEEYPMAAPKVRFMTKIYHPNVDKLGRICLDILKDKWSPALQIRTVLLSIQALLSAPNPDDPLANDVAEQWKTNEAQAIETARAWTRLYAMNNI
The format is functional.

The nature of assay [9]: inhibitors of SNCA 5'UTR-driven reporter translation, confirmation, H4 neuroglioma cells, luminescence (AID 1988). It counts as functional, cell-based.
Assay [10] is described as follows: Luminescence Cell-Based Dose Response HTS to Identify Inhibitors of 5'UTR Stem-Loop Driven Prion Protein mRNA Translation in H4 Neuroglioblastoma Cells. [Related pubchem assays: 1827 (Project Summary), 1813 (Primary HTS)]. The format is functional.
The nature of assay [11]: inhibitors of firefly luciferase expression or activity, dose response, H4 neuroglioma cells, luminescence (AID 1990). It counts as functional, cell-based.
The nature of assay [12]: NIH-3T3 fibroblast cytotoxicity, dose response, cytotoxicity control, cell-based, fluorescence, Alamar Blue, secondary assay (AID 2327).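 Further: NIH-3T3 mouse fibroblasts cultured with fluconazole at 8 µg/mL.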 It counts as functional. For orientation: Alamar Blue is a resazurin reagent that responds to reducing activity.
The nature of assay [13]: C. albicans growth with fluconazole, confirmation, fluorescence, retest (AID 2467). It counts as functional, cell-based.
A further assay is described as follows: cells. It counts as functional.
The nature of assay [14]: THP-1 cell cytotoxicity, dose response, cytotoxicity control for non-replicating M. tuberculosis project (AID 489025). It counts as functional.
For the next assay, the target named is Cytochrome P450 3A4 (Homo sapiens, UniProt P08684).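 Further: CYP3A4 tested as one member of a cytochrome P450 panel screen.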
A further assay concerns the target T4, Protein RecA (Mycobacterium tuberculosis, UniProt P9WHJ3).
T4 sequence (P9WHJ3 whole entry): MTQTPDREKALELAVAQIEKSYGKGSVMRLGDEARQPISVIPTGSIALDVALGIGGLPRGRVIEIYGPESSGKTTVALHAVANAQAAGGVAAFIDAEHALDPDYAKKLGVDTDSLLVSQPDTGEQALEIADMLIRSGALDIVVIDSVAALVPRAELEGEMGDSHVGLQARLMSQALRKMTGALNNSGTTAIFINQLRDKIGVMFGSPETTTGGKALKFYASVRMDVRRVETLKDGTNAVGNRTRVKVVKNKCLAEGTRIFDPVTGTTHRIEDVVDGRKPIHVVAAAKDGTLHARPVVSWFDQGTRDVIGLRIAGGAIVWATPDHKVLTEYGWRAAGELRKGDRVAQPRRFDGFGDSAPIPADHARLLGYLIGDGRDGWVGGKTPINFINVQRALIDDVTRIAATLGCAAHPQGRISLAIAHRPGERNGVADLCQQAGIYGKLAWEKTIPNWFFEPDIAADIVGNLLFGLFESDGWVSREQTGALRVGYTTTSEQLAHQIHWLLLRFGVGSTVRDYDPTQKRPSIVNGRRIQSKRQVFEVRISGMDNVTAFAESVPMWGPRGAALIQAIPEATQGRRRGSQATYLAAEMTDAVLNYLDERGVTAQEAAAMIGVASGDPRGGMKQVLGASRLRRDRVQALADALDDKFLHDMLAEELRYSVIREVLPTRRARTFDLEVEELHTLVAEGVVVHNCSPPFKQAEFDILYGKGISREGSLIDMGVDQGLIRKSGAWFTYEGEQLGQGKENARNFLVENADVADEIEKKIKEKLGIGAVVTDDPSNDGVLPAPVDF
As to the kind of experiment: Fluorescence Cell-Free Homogeneous Dose Retest to Identify Inhibitors of RecA-Intein Splicing Activity. [Related pubchem assays (depositor defined):AID2097, AID2223, AID489010, AID492950]. The format is functional.

Assay [15] concerns the target T5, Replicative DNA helicase DnaB (Mycobacterium tuberculosis, UniProt P9WMR3).
T5 sequence (P9WMR3 whole entry): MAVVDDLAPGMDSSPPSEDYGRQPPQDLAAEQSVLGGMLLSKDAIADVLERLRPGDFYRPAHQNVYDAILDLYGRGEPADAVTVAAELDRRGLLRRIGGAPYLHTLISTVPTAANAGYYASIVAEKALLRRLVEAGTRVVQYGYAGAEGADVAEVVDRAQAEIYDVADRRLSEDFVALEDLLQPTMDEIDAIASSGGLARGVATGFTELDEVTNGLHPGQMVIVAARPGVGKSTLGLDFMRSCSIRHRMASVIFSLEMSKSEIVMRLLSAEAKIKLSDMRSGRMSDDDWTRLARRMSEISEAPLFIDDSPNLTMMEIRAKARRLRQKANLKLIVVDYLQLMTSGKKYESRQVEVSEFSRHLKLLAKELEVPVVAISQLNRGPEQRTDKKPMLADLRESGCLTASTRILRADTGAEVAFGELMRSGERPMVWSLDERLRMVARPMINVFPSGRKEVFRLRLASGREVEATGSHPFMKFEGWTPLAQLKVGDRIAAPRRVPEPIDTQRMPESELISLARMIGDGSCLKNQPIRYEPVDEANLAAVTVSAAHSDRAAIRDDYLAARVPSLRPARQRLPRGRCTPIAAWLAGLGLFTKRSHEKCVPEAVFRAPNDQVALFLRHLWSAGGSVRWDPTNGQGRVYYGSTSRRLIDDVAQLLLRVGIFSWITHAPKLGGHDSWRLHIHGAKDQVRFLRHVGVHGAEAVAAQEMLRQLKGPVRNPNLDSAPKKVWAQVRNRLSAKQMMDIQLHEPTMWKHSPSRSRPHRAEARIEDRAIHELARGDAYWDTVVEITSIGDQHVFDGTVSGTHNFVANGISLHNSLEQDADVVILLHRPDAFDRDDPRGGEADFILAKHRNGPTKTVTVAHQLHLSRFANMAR
As to the kind of experiment: DnaB intein splicing inhibitors, dose response, biochemical, cell-free fluorescence (AID 449749). It counts as functional.

A further assay relates to INS1. As to the kind of experiment: beta cell apoptosis inhibitors, cytokine rescue, dose response, luminescence, retest (AID 449756).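 Further: cell death triggered by IL-1 beta plus TNF-alpha plus IFN-gamma mixture; protective hits raise ATP signal compared with cytokine alone wells.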 The format is functional, cell-based. The following applies: Rattus norvegicus.

The source made the active and inactive calls.

Sequence of Cytochrome P450 3A4 (P08684 whole entry): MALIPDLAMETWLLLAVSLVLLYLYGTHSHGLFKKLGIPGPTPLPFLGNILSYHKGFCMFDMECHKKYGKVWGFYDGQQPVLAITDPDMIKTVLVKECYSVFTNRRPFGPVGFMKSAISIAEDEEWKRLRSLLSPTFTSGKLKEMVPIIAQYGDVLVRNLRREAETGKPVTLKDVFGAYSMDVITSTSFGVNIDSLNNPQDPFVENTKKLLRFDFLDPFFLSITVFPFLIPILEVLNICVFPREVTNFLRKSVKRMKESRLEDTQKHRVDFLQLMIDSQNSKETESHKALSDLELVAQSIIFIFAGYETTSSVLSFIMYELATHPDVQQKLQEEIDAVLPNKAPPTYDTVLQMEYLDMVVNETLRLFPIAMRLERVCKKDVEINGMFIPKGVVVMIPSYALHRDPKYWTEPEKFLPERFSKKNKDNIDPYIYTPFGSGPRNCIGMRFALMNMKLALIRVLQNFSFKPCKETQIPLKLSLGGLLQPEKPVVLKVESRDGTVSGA

Regarding `O=C(O)c1ccc(C(=O)Nc2ccc(F)cc2)cc1`, the half-maximal activity concentration (AC50) in assay [1] is 19.8 µM (active).

Take `COC(=O)[C@]1(C)CCC[C@@]2(C)C3CC[C@@]4(C)C[C@]3(CCC21)CC(=O)N4Cc1ccc(OC)cc1` (some centres undefined): the AC50 was 8.16 µM (active) in assay [2], 10.6 µM (active) in [3] and > 70 µM (inactive) in [4].

For the compound `COc1ccc(CN2CCN(Cc3ccc(C(F)(F)F)cc3)CC2)cc1`, the IC50 in assay [5] is 99.6 µM (active).

For the compound `COc1ccc2cc(OCC(=O)NNC(=O)Nc3ccc(C(C)=O)cc3)ccc2c1`, the values for the half-maximal effective concentration (EC50) (in [6]; in assay [7]; with H4) were 33.4 µM (active), 12.4 µM (active) and 20.3 µM (active), respectively. Moreover, the IC50 in assay [5] was 239 µM (active).

With `COc1cc(CNCc2ccccc2C(F)(F)F)cc(OC)c1`, in assay [5], the IC50 was 113 µM (active).

`O=C(NCC1CCCCC1)C1(CC2CC(c3cccc(Br)c3)=NO2)CCNCC1` (centres undefined): the IC50 in assay [8] was > 20 µM (inactive). Further, the concentration at half-maximal activity (AC50) in [1] was 18.1 µM (active).

As to `O=C(Nc1ccc(N2CCOCC2)cc1)c1cnsn1`, the EC50 in assay [9] is 1.9 µM (active); in [10], 5.28 µM (active); in [11], 3.19 µM (active). Besides, the AC50 in [1] is 3.05 µM (active).

Turning to `COc1cc(/C=C/C(=O)OCC(=O)N(C)Cc2ccccc2)ccc1O`, the IC50 in assay [5] was 35.2 µM (active).

Take `CC(C(=O)Nc1ccc(F)c(F)c1)N1CCN(C)CC1` (centres undefined): in assay [5], the IC50 was 83.1 µM (active).

`COc1cc2nc(=S)[nH]c(Nc3ccc(NC(C)=O)cc3)c2cc1OC`: the values for the IC50 in [8] and in assay [5] were > 20 µM (inactive) and 306 µM (active), respectively.

On to `Cc1ccc(CCNc2ccc3ccccc3c2)cn1`, for which the IC50 in assay [5] is 105 µM (active).

In the case of `c1ccc(-c2cc3nc(NCC4CC4)nc(NCC4CCCCC4)c3s2)cc1`, the AC50 in assay [2] is 2.67 µM (active); in assay [3], 3.12 µM (active); in [4], 9.15 µM (active).

With `CC1(C(=O)N/N=C/c2ccc([N+](=O)[O-])o2)CC1(Br)Br` (centres undefined), the EC50 in assay [12] is > 150 µM (inactive); in assay [13] it was 2.46 µM (active). Besides, the concentration at half-maximal activity (AC50) in assay [1] is 10.3 µM (active).

Take `O=C(N/N=C/c1ccc(Br)s1)c1ccccc1[N+](=O)[O-]`: the IC50 in “cells” is 49.2 µM (active). In addition, in assay [14], the CC50 is > 40 µM (active). Besides, the AC50 at Cytochrome P450 3A4 is 17.8 µM (inconclusive).

Turning to `O=C(N/N=C/c1ccc([N+](=O)[O-])o1)c1ccc(O)cc1` [NIFUROXAZIDE], the EC50 on Protein RecA is > 380 µM (inactive). Further, the results for the AC50 (in assay [15]; in the assay with INS1; in [1]) were > 380 µM (inactive), 5.18 µM (active) and 5.2 µM (active), respectively.
